Measured values from patent US20250032442A1, “METHODS AND COMPOSITIONS FOR TREATING COGNITIVE IMPAIRMENT” (AXSOME MALTA LTD., priority 2021, published 2025).

Columns and labels:
Type in all cases: in vivo, human
[1] = tested on: cognitively impaired patients with EDS associated with OSA; test: SHARP clinical study: Epworth Sleepiness Scale (ESS); conditions: 2 weeks treatment, 150 mg per day
Source text: (§1) SHARP (Solriamfetol's Effect on Cognitive Health in Apnea Participants During a Randomized Placebo-controlled Study) was a randomized, double-blind, placebo-controlled, crossover, multicenter, trial in which 59 patients with excessive daytime sleepiness (EDS) and obstructive sleep apnea (OSA), who were experiencing cognitive impairment, were all treated with solriamfetol for 2 weeks, and with placebo for 2 weeks, with the treatment periods separated by 1 week of down-titration and washout. Patients were randomized in a 1:1 ratio either to treatment with solriamfetol followed by placebo (sequence 1), or to treatment with placebo followed by solriamfetol (sequence 2). Solriamfetol was administered orally once daily, starting at 75 mg per day for the first three days and 150 mg per day for the remainder of the 2-week treatment period. The primary outcome measure was the Digit Symbol Substitution Test subtest of the Repeatable Battery for the Assessment of Neuropsychological Status (DSST RBANS). The Digit Symbol Substitution subtest is also referred to as “Coding.” The prespecified primary endpoint was the change from baseline in cognitive function as measured by the DSST RBANS after 2 weeks of treatment (average of the 2-, 4-, 6-, and 8-hour post-dose DSST RBANS scores). […] The secondary endpoints were analyzed in a pre-specified testing sequence. […]

[2] = tested on: cognitively impaired patients with EDS associated with OSA; test: SHARP clinical study: adverse events; conditions: solriamfetol treatment, 75 then 150 mg per day oral, 2 weeks
Source text: as §1

[3] = tested on: cognitively impaired patients with EDS associated with OSA; test: SHARP clinical study: British Columbia Cognitive Complaints Inventory (BC-CCI); conditions: 2 weeks treatment, 150 mg per day
Source text: as §1

[4] = tested on: cognitively impaired patients with EDS associated with OSA; test: SHARP clinical study: Digit Symbol Substitution Test subtest of RBANS (DSST RBANS)
Source text: as §1

NC(=O)OC[C@H](N)Cc1ccccc1 [solriamfetol, (R)-2-amino-3-phenylpropyl carbamate]
effect size, ESS vs. placebo [1]: 0.50 | improvement on the ESS relative to placebo ([1]; p=0.004): approximately twice that observed with placebo | adverse event incidence: anxiety [2]: 3.4% | adverse event incidence: nausea [2]: 6.9% | effect size, BC-CCI overall score vs. placebo [3]: 0.43 | improvement in cognitive function, BC-CCI overall score compared to placebo ([3]; p=0.002): Statistically significant improvement | effect size, DSST RBANS vs. placebo ([4]; 2 weeks treatment, 150 mg per day): 0.36 | change from baseline on the DSST RBANS ([4]; after 2 weeks oral once daily (75 mg 3 days, then 150 mg), average of 2-, 4-, 6-, 8-hour post-dose scores, placebo 4.75, p=0.009): 6.49
